# Assay results reported in the METLIN SMRT retention time set (Domingo-Almenara et al. 2019).
# Experiment: gradient 5% acetonitrile 3 min, to 50% in 2 min, to 85% in 15 min, held 3 min, 100 µL/min
# Settings: column: Zorbax Extend-C18 2.1 x 50 mm; eluents: water / acetonitrile, 0.1% formic acid
# Outline: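 The mobile phases were water and acetonitrile, each with 0.1% formic acid, pumped at 100 μL/min through a Zorbax Extend-C18 column (2.1 × 50 mm, 1.8 μm). Pure standards were injected as mixtures of ~100 molecules and detected by a quadrupole time-of-flight mass spectrometer in positive and negative ionization mode. Retention time came from computationally picked adduct peaks, each inspected by hand.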
row,SMILES,RP-LC retention time [s]
1,CNC(=O)c1c(NC(=O)C2COc3ccccc3O2)sc2c1CCCC2 (configuration not stated),1030
2,Cc1nnc2cc(N3CCN(C(=O)Nc4ccccc4F)CC3)cnn12,542
3,CSc1ccccc1C(=O)N(Cc1ccsc1)CC(F)(F)F,987
4,COc1cccc(C(=O)NCCN2CCN(c3ccc(Cl)cc3)CC2)c1,745
5,COc1ccc(C2CC(=O)N(c3ccc(C)c(Cl)c3)C(=O)C2)cc1OC,652
6,CCC(=O)NCc1nc2c(n1C)CN(S(=O)(=O)c1cccc(Cl)c1)CC2,570
7,O=C(C1CCCCC1)N1CCC(c2noc(CO)n2)C1 (configuration not stated),656
8,Cc1ccc2c(c1)N(S(C)(=O)=O)CCC(C(=O)Nc1cccc(Br)c1)O2 (configuration not stated),1060
9,CCOc1ccc(-c2nc3ncccn3c2NC2CCCCC2)cc1,808
10,COc1cccc2c1OC1(C)CC2C(S(=O)(=O)c2ccc(Cl)cc2)C(=O)N1C (configuration not stated),938
11,Cc1cccc(C(=O)N2C(C(=O)NCC3CCCO3)COC23CCN(C(=O)C(C)(C)C)CC3)c1 (configuration not stated),684
12,CCc1ccc(CNC(=O)c2cc3n(n2)CC(C)(C(=O)NCc2ccc(F)cc2)N(C)C3=O)cc1 (configuration not stated),858
13,O=C(NCC1CCCCC1)C1CCN(C(=O)c2ncn3c2COC(c2ccc(Cl)cc2)C3)CC1 (configuration not stated),830
14,COc1ccc(OC)c(NC(=O)COc2cc(C(C)(C)C)nn2-c2nc(C)cc(C)n2)c1,881
15,Cc1cc(NC(=O)Cc2csc(NC(=O)c3ccc(F)cc3)n2)sn1,701
16,CC(C)c1noc(-c2ccnc(-n3cnc(C(=O)N4CCOCC4)c3)c2)n1,748
17,c1ccc(COCCc2noc(C3CCCCN3)n2)cc1 (configuration not stated),622
18,Cc1ccc(-n2nc3c(N4CCN(C(=O)NCC5CCCO5)CC4)nnc(C)c3c2C)cc1 (configuration not stated),590
19,CCc1c(C(=O)O)nnn1-c1ccc(C)cc1F,737
20,Cc1cccc(N2CCN(C(=O)C3CCc4sc(C(=O)N(C)C)cc4C3)CC2)c1 (configuration not stated),867
21,CC(=O)Nc1ccc(C2(C(=O)N3CCCCCC3)CCC2)cc1,769
22,Cc1ccc2[nH]c(=O)c(CCC(=O)NCCCN3CCCC(C)C3)cc2c1 (configuration not stated),594
23,O=C(NCCc1cccc(F)c1)C1CC(=O)N(c2n[nH]c3cccc(F)c23)C1 (configuration not stated),720
24,O=C1CCC(C(=O)N2C[C@@H](COCC3CC3)[C@H](c3ccccn3)C2)=NN1,583

row,SMILES,RP-LC retention time [s]
1,CCOc1cccc(CN2C[C@@H]3C(=O)N(CCCN4CCCC4=O)C(=O)[C@@H]3C2)c1,617
2,Cc1cnc(C2CCOCC2)n1C1CCCN(Cc2c[nH]c3ccccc23)C1 (configuration not stated),557
3,CCCC(=O)N1CCC(C(=O)NCCc2cscn2)CC1,596
4,Cn1nc(C(F)(F)F)cc1C(=O)N1CCCC1c1ccccc1Cl (configuration not stated),1030
5,CCN(CC)CCNC(=O)c1cn(C)nc1S(=O)(=O)N1CCN(c2cc(Cl)ccc2C)CC1,756
6,CCC(=O)N1CCc2c(C(=O)N3CCN(c4ccccc4OC)CC3)cccc21,786
7,CCc1ccc(S(=O)(=O)N2CCc3nc(CNC(=O)C4CCC4)n(C)c3C2)cc1,652
8,CCOC(=O)c1cccc(NS(=O)(=O)c2cc(-c3c(CC)noc3NC(C)=O)ccc2OC)c1,814
9,CCOc1ccc2nc(NC3=NCN(CCCOC)CN3)nc(C)c2c1,668
10,COc1ccc(-c2cc(C(=O)Nc3cc(C)ccc3C)nn2C2CCS(=O)(=O)C2)cc1 (configuration not stated),982
11,CC(C)CN1CCn2cc(S(=O)(=O)NCc3ccccc3Cl)cc2C1=O,818
12,CCc1noc(NC(C)=O)c1-c1ccc(C)c(S(=O)(=O)N2CCC(C)CC2)c1,929
13,CN(C)c1ccc(N2C=C(C(=O)N3CCOCC3)S(=O)(=O)c3ccc(F)cc32)cc1,828
14,COc1ccc(NC(=O)c2cn(-c3cc(N4CCCC(C)C4)ncn3)cn2)cc1OC (configuration not stated),973
15,CCCN(CC(=O)N1CCc2sccc2C1COc1ccccc1OC)C(=O)C1CC1 (configuration not stated),922
16,O=C(Nc1cc2c3c(c1)CCC(=O)N3CCC2)C(=O)Nc1ccc2c(c1)OCO2,747
17,CC1CCN(S(=O)(=O)c2ccc3nn(CC(=O)OC(C)C)c(=O)n3c2)CC1,929
18,Cn1c(N2CCCC(C(=O)Nc3nccs3)C2)cc(=O)n(C)c1=O (configuration not stated),634
19,COc1ccc2sc(OC3CCN(C(=O)NC(C)C)CC3)nc2c1,819
20,CCCN(CC1CCOC1)C(=O)Nc1cccc(CC)c1 (configuration not stated),864
21,Cc1cccc(NS(=O)(=O)c2cc(-c3[nH]ncc3C(=O)N3CCCC3)oc2C)c1,716
22,Cc1ccc(Cn2c(N3CCCC(C(=O)NCc4ccc(C)o4)C3)nc3ccsc3c2=O)cc1 (configuration not stated),952
23,COC(=O)C1=C(C(=O)OC)SC2(S1)C(C(=O)OC)=C(C(=O)OC)Sc1c2ssc1=O,977

# The next lines start with the values.
row,RP-LC retention time [s],SMILES
1,856,COc1ccc(C)cc1NC(=O)Cn1nc(N2CCOCC2)c2ccccc2c1=O
2,1230,O=C(NCc1ccc(C(F)(F)F)cc1)c1c(O)c2cccnc2n(-c2ccccc2)c1=O
3,714,O=C(Cc1c(Sc2ccc(F)cc2)[nH]c2ccccc12)N1CCN(c2ccccn2)CC1
4,753,CCn1cnc2ccc(-c3noc(-c4ccc(OC)cc4)n3)cc21
5,751,CC1(C(=O)NCc2ccc(F)cc2)Cn2cnc(C(=O)NCc3ccccc3F)c2C(=O)N1C1CC1 (configuration not stated)
6,662,O=S(=O)(c1ccc2c(c1)CCC2)N1CCC(Cc2nc(-c3ccncc3)n[nH]2)C1 (configuration not stated)
7,800,CC(=O)c1cccc(NC(=O)c2cnc(-c3ccccc3)nc2-c2ccncc2)c1
8,668,COc1ccc(-c2nc(C)cc(C)c2CNS(=O)(=O)c2cccc(C)c2)cc1
9,1180,CCc1cc(=O)n(CC(=O)Nc2cc(F)ccc2F)c(-c2ccccc2)n1
10,1090,CCCc1nc(-c2ccccc2)oc1CC(=O)Nc1ccc(Cl)cc1C
11,841,CN(Cc1ccccc1)C(=O)c1ccc2c(c1)CCCN2S(C)(=O)=O
12,817,COc1ccc(-c2cc(N3CCC(NC(=O)C4(c5ccccc5)CC4)CC3)n[nH]2)cc1
13,783,O=C(CN1C(=O)CCCc2ccccc21)NCCc1ccccc1
14,795,COc1ccc(-c2cc(N3CCN(C(=O)c4ccc(C(C)(C)C)cc4)CC3)ncn2)cc1
15,1010,O=c1c2ccccc2c(-c2nc(-c3cccnc3)no2)cn1-c1ccccc1
16,1110,CCc1ccc(NC(=O)C2CCCN(S(=O)(=O)c3cc(-c4noc(CC)n4)cs3)C2)cc1 (configuration not stated)
17,1150,COc1cccc(-c2nc(C3CCN(S(=O)(=O)c4ccc(C)cc4)CC3)no2)c1
18,1080,COc1ccc(OC)c(-c2csc(-c3nnn(-c4ccccc4)c3N)n2)c1
19,608,O=C(NCc1cccnc1)C1CCN(Cc2cc3ccccc3n2Cc2cccc(F)c2)CC1
20,839,CCn1nc(CNC(=O)c2ccc(F)cc2)c2ccccc21

row,RP-LC retention time [s],SMILES
1,964,Cc1ccc(Cn2ccn3nc(-c4ccccc4)c(CO)c3c2=O)cc1
2,984,Cc1cccc(Oc2coc3cc(OC(=O)c4ccncc4)ccc3c2=O)c1
3,809,O=C(N[C@H]1C[C@@H]2C[C@H]1CN2C(=O)c1cccc(C(F)(F)F)c1)c1ccccc1
4,736,Cc1ccc2c(Nc3ccc4c(c3)OCO4)c(-c3nc(C4CC4)no3)cnc2n1
5,734,NC(=O)Cc1cccc(C(=O)c2ccccc2)c1N
6,895,CCOc1cccc(-c2noc(Cn3ccn(-c4ccc(Cl)cc4)c(=O)c3=O)n2)c1
7,823,CN1C(=O)c2cc(C(=O)NCCc3ccc(Cl)cc3)nn2CC1(C)C(=O)NCc1ccccc1 (configuration not stated)
8,774,Cc1ccc(NC(=O)N2CCC(n3c(-c4ccoc4)nc4cccnc43)C2)cc1F (configuration not stated)
9,1100,O=S(=O)(NCc1nc(-c2ccc(-c3csc(C4CC4)n3)cc2)no1)c1ccccc1
10,653,CC(C)S(=O)(=O)c1ccc(C(=O)N2CC(=O)Nc3ccccc32)cc1
11,808,Cn1c(SCC(=O)c2ccccc2OC(F)F)nc2ccccc21
12,724,O=C(NC(Cc1c[nH]c2ccccc12)C(=O)O)c1ccc(Cl)cc1 (configuration not stated)
13,956,CCCN1C(=O)COc2ccc(-c3noc(-c4ccn(CC)n4)n3)cc21
14,779,Cn1nc(CN(C(=O)c2ccccc2F)c2ccccc2)c2c1CCN(S(C)(=O)=O)C2
15,957,Cc1ccc(NC(=O)CSc2nnc3c4cc(-c5ccccc5)nn4ccn23)c(Cl)c1
16,1080,COc1ccccc1NC(=O)N1CCCC1c1nc(-c2ccccc2C)no1 (configuration not stated)
17,829,Cc1ccc(S(=O)(=O)Nc2ccc(Nc3ccc(-n4cccn4)nn3)cc2)c(C)c1
18,996,O=C(Cn1cccc1-c1nnc(-c2ccccc2)o1)N1CCN(c2ccccc2F)CC1
19,955,COc1cc(-c2noc(CCn3nc(-c4ccccc4)ccc3=O)n2)cc(OC)c1OC
20,963,CCc1nn2c(CNS(=O)(=O)c3cc(F)cc(F)c3)c(-c3ccccc3)nc2s1
